{"source": "ChEMBL document CHEMBL1201862", "about": "“PubChem BioAssay data set” (2004)", "key": {"[1]": {"molecular_target": "Potassium voltage-gated channel subfamily KQT member 2 (Rattus norvegicus, UniProt O88943)", "assay": "retigabine-insensitive KCNQ2 potentiators, concentration-response, dose response, cell-based, retigabine-insensitive compounds (AID 2654)", "format": "functional"}, "Beta-galactosidase": {"molecular_target": "Beta-galactosidase (Escherichia coli, UniProt Q8VNN2)", "sequence (Q8VNN2 whole entry)": "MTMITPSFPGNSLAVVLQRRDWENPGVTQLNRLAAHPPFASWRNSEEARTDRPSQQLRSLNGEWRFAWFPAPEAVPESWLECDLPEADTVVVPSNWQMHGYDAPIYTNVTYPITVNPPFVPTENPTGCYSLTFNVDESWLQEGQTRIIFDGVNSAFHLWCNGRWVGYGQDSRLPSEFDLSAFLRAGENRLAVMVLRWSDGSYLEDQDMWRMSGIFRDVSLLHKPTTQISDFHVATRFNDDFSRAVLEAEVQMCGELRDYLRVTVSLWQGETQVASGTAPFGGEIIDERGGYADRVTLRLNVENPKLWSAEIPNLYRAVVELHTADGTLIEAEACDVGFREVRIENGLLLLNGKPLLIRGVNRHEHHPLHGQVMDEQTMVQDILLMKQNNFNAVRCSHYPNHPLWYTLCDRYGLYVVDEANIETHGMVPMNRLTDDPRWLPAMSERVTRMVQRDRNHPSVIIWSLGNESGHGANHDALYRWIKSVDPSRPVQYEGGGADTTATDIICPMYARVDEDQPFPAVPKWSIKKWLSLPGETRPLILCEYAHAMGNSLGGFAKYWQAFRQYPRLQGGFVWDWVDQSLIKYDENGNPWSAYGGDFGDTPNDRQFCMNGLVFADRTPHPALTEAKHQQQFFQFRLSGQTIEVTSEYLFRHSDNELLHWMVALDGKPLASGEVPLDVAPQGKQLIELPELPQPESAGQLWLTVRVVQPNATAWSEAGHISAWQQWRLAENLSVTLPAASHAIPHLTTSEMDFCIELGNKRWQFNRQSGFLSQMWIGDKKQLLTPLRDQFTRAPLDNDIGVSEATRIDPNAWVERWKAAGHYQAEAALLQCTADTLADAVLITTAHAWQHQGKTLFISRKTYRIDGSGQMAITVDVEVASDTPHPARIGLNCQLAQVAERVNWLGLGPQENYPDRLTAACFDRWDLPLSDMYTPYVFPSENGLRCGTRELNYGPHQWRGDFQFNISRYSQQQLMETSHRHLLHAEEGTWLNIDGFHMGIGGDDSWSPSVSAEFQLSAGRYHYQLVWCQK", "assay": "beta-galactosidase enzyme inhibitors and activators, dose response, artefact control for CCR6 antagonist project, biochemical, E. coli enzyme, set 3 (AID 504712)", "format": "functional"}, "[2]": {"molecular_target": "Mitochondrial peptide methionine sulfoxide reductase (Bos taurus, UniProt P54149)", "sequence (P54149 whole entry)": "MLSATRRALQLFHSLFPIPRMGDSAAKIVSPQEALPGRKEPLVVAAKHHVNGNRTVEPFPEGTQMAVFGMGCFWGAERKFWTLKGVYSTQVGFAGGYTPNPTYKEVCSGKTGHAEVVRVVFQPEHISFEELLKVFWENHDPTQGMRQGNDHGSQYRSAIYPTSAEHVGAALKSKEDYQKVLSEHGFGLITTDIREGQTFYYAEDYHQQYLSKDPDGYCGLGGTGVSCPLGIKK", "assay": "Absorbance-based biochemical high throughput dose response assay for activators of Methionine sulfoxide reductase A (MsrA).", "format": "functional"}, "[3]": {"assay": "Luminescence Cell-Based Dose Response HTS to Identify Activators of Luciferase Translation or Activity in H4 […] Cells. [Related pubchem assays: 1829 (Project Summary), 1814 (Primary HTS)]", "format": "functional"}, "[4]": {"molecular_target": "T1, Alkaline phosphatase, tissue-nonspecific isozyme (Homo sapiens, UniProt P05186)", "T1 sequence (P05186 whole entry)": "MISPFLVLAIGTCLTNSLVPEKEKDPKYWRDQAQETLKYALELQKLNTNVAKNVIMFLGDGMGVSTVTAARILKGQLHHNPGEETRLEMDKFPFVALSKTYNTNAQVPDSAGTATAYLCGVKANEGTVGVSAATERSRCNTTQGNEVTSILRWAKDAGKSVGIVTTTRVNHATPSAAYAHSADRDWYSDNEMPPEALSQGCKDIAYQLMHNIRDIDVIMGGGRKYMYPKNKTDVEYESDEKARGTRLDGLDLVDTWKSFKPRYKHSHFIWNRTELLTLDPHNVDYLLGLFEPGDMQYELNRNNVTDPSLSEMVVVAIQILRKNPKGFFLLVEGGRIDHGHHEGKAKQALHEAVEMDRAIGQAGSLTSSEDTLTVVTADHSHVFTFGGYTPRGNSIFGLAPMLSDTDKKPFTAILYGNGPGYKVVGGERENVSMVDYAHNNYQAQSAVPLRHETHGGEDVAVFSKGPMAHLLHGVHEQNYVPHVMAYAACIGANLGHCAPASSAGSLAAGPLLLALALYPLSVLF"}, "H4": {"test_system": "H4", "assay": "Luminescence Cell-Based Dose Response HTS to Identify Activators of 5'UTR Stem-Loop Driven Prion Protein mRNA Translation in H4 Neuroglioblastoma Cells. [Related pubchem assays: 1829 (Project Summary), 1814 (Primary HTS)]", "format": "functional", "settings": "Homo sapiens"}, "Ion channel NompC [5]": {"molecular_target": "T2, Ion channel NompC (Danio rerio, UniProt Q7T1G6)", "T2 sequence (Q7T1G6 whole entry)": "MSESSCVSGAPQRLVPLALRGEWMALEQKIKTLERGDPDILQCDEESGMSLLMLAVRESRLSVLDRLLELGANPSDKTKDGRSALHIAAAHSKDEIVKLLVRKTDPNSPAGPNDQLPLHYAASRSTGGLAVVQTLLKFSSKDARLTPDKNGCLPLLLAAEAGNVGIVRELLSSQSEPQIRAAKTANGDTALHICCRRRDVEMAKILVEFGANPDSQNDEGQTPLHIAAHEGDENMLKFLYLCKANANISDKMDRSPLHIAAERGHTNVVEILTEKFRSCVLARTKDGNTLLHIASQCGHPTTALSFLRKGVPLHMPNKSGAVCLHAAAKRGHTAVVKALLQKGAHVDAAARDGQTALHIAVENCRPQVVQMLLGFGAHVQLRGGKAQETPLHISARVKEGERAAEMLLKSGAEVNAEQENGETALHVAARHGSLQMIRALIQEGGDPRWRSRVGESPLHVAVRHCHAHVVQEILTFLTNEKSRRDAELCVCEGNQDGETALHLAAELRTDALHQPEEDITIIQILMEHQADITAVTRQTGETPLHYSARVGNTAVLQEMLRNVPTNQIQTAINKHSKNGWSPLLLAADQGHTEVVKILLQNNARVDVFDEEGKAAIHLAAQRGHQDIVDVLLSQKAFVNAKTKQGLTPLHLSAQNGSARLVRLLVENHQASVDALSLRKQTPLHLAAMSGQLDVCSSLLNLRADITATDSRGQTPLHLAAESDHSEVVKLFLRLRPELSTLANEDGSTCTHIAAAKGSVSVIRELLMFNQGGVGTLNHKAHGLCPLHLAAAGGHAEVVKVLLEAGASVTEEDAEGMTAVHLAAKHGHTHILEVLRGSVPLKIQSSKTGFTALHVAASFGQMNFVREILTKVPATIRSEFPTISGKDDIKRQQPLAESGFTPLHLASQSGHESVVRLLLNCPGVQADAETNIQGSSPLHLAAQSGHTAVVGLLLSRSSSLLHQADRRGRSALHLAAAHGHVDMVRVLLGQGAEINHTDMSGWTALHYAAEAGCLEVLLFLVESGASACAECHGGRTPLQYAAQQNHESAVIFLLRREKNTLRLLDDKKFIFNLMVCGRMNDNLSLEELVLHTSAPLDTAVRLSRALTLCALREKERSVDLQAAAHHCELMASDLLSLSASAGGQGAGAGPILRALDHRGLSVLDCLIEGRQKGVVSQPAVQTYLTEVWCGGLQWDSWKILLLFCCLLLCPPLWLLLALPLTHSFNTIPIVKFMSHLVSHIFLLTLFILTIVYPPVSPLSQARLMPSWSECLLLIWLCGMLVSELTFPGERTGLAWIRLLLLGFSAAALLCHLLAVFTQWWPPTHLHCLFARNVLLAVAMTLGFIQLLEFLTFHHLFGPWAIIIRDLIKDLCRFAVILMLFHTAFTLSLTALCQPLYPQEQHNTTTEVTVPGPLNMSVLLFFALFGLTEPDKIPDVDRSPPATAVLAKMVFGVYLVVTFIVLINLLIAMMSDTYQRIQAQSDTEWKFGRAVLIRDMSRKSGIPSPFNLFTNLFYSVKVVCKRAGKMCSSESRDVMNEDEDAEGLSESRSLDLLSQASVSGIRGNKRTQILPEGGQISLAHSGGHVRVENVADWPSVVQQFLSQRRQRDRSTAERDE", "assay": "Fluorescence counterscreen assay for TRPML3 agonists: dose response cell-based high-throughput screening assay to identify agonists of the transient receptor potential channel N1 (TRPN1). [Related pubchem assays: 1526, 1424, 1448 ]", "format": "functional"}, "Mucolipin-3 [6]": {"molecular_target": "T3, Mucolipin-3 (Homo sapiens, UniProt Q8TDD5)", "T3 sequence (Q8TDD5 whole entry)": "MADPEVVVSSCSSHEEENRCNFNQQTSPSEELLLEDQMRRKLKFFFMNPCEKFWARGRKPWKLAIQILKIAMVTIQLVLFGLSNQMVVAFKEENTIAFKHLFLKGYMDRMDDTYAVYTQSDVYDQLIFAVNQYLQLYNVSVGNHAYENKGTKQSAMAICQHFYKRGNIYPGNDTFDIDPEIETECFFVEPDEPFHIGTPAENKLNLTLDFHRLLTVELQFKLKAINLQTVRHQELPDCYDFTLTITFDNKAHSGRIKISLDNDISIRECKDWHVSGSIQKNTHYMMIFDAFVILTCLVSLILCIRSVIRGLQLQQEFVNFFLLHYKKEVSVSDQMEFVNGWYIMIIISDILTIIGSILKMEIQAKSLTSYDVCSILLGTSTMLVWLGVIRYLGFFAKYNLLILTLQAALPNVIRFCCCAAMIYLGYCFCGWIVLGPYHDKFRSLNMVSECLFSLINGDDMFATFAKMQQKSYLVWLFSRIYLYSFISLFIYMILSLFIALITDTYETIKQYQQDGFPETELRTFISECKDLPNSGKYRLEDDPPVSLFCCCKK", "assay": "Dose response cell-based high-throughput screening assay for agonists of the transient receptor potential channel ML3 (TRPML3). [Related pubchem assays: 1526, 1424, 1448 ]", "format": "functional"}, "Ion channel NompC [7]": {"molecular_target": "T2, Ion channel NompC", "assay": "TRPML3 and TRPML2 channel agonists, cell-based, patch clamp, Fura-2 profiling panel, panel member TRPN1 Dose Response (AID 2116)"}, "Mucolipin-3 [8]": {"molecular_target": "T3, Mucolipin-3", "assay": "TRPML3 and TRPML2 channel agonists, cell-based, patch clamp, Fura-2 profiling panel, panel member TRPML3 Dose Response (AID 2116)"}, "[9]": {"molecular_target": "NACHT, LRR and PYD domains-containing protein 3 (Homo sapiens, UniProt Q96P20)", "assay": "NALP3 inhibitors in yeast, dose response, luminescent (AID 488799)", "format": "functional"}, "[10]": {"molecular_target": "Dual specificity protein phosphatase 3 (Homo sapiens, UniProt P51452)", "sequence (P51452 whole entry)": "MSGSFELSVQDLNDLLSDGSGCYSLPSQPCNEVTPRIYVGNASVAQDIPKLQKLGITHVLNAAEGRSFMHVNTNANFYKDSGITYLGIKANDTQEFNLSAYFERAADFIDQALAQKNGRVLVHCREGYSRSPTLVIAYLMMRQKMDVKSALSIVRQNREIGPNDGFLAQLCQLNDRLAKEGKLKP", "assay": "VHR1 inhibitor Ki determination, SAR follow-up, biochemical, colorimetric (AID 2004)"}, "[11]": {"molecular_target": "T4, Eukaryotic translation initiation factor 2-alpha kinase 3 (Homo sapiens, UniProt Q9NZJ5)", "T4 sequence (Q9NZJ5 whole entry)": "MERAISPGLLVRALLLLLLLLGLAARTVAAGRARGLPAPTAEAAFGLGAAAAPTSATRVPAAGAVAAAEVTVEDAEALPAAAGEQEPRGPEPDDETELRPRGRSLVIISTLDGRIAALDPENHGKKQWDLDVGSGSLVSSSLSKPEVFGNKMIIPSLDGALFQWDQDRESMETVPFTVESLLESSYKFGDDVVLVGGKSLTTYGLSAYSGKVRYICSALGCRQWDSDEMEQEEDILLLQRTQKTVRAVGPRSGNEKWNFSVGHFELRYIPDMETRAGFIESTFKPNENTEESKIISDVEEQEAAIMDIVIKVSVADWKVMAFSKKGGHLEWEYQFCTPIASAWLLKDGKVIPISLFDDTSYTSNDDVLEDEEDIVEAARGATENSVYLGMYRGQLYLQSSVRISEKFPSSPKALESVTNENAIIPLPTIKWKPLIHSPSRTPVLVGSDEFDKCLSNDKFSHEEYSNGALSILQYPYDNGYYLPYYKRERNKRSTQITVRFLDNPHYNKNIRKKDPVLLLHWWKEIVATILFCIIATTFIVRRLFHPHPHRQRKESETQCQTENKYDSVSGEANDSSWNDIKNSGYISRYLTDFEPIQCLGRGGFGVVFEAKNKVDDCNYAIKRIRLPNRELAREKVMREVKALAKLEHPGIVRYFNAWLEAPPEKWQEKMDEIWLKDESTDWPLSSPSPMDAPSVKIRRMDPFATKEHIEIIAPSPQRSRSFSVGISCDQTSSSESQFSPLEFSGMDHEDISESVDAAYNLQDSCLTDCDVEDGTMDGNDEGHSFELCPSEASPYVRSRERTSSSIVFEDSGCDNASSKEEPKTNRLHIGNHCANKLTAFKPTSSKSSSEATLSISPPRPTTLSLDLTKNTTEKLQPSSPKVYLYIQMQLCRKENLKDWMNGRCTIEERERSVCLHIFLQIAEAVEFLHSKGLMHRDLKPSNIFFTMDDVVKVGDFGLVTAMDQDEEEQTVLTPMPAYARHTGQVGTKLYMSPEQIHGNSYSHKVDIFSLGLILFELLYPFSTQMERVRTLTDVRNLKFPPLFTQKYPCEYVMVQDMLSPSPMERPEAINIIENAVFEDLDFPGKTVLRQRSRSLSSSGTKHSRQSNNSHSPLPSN", "assay": "Dose response cell-based high-throughput screening assay to measure PERK inhibition. [Related pubchem assays: 1416 ]", "format": "functional"}, "[12]": {"molecular_target": "T4, Eukaryotic translation initiation factor 2-alpha kinase 3", "assay": "Counterscreen assay for PERK inhibitors: Dose response cell-based high throughput screening assay to measure inhibition of PERK at 6 hours. [Related pubchem assays: 1522, 1416 ]", "format": "functional"}, "Streptococcus": {"test_system": "Streptococcus", "assay": "Luminescence Microorganism-Based Dose Response Follow up to Identify Compounds Cytotoxic to Streptococcus. [Related pubchem assays: 1677 (Project Summary), 1915, 1914, 1902 (Retest at Dose), 1900 (Counter Screen), 1662 (Primary HTS)]", "format": "functional, organism-based"}}, "note": "Active and inactive are the calls of the source.", "data": [{"compound": "S=C(Nc1ccc(Nc2ccccc2)cc1)Nc1cccnc1", "values": [{"measurement": "EC50", "setting": "[1]", "value": "11 µM (active)"}]}, {"compound": "CS(=O)(=O)c1cc([N+](=O)[O-])c(Sc2nc3ccccc3[nH]2)c([N+](=O)[O-])c1", "values": [{"measurement": "IC50", "setting": "Beta-galactosidase", "value": "> 66.6 µM (inactive)"}, {"measurement": "EC50", "setting": "[2]", "value": "> 104 µM (inactive)"}]}, {"compound": "Cc1ccc(-c2cc(-c3ccccc3[N+](=O)[O-])[nH]n2)c(O)c1", "values": [{"measurement": "EC50", "setting": "[3]", "value": "2.35 µM (inconclusive)"}, {"measurement": "EC50", "setting": "[4]", "value": "80.2 µM (not active)"}, {"measurement": "EC50", "setting": "H4", "value": "> 120 µM (not active)"}]}, {"compound": "O=S(=O)(Nc1ccccc1N1CCCCC1)c1ccc(Cl)s1", "values": [{"measurement": "EC50", "setting": "Ion channel NompC [5]", "value": "> 29.9 µM (not active)"}, {"measurement": "EC50", "setting": "Mucolipin-3 [6]", "value": "0.872 µM (active)"}, {"measurement": "EC50", "setting": "Ion channel NompC [7]", "value": "> 29.9 µM (inactive)"}, {"measurement": "EC50", "setting": "Mucolipin-3 [8]", "value": "0.62 µM (active)"}]}, {"compound": "COc1cccc(NC(=O)c2ccccc2)c1", "values": [{"measurement": "IC50", "setting": "[9]", "value": "13.7 µM (active)"}]}, {"compound": "CC(Oc1ccc2oc(-c3ccccc3)c(C(=O)O)c2c1)C(=O)O", "note": "(stereo not given)", "values": [{"measurement": "Ki", "setting": "[10]", "value": "102 µM (inactive)"}]}, {"compound": "Cn1nccc1NC(=O)Nc1ccc(OC(F)(F)F)cc1", "values": [{"measurement": "EC50", "setting": "[11]", "value": "> 55.7 µM (not active)"}, {"measurement": "EC50", "setting": "[12]", "value": "> 55.7 µM (not active)"}]}, {"compound": "CC(C)(C)N/N=C1\\CC(c2ccccc2)Oc2ccccc21", "note": "(stereo not given)", "values": [{"measurement": "EC50", "setting": "Streptococcus", "value": "> 500 µM (not active)"}]}]}
